These are literature values, as cited in PMC7961821, “Comparing Ligninolytic Capabilities of Bacterial and Fungal Dye-Decolorizing Peroxidases and Class-II Peroxidase-Catalases” (International Journal of Molecular Sciences, 2021).

In one data set the target is T1, PchLiPA (Phanerodontia chrysosporium, UniProt P06181).
T1 construct: gene LPOA; heme enzyme
The data set can be described thus: steady-state kinetics, absorbance loss at […] nm. It counts as biochemical. As to conditions: read-out: RB19; 1 mM H2O2, optimal pH (not given for RB19), 25 °C.

In another data set the target is T2, PerVPL (Pleurotus eryngii, UniProt O94753).
T2 construct: gene vpl2; heme enzyme
The data set can be described thus: steady-state kinetics, absorbance loss at […] nm. Format: biochemical. As to conditions: read-out: RB19; 1 mM H2O2, optimal pH (not given for RB19), 25 °C.

T1 sequence (P06181 29-372): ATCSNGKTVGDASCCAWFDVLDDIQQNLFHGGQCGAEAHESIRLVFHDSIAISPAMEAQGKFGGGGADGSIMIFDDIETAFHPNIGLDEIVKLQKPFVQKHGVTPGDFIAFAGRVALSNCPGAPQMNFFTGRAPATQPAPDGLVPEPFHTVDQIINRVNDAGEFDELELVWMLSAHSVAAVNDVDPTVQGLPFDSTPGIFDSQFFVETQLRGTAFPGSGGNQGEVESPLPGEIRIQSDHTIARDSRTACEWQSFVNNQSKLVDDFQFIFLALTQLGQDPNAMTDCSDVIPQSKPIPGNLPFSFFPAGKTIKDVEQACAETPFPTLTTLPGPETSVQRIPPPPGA
T2 sequence (O94753 31-361): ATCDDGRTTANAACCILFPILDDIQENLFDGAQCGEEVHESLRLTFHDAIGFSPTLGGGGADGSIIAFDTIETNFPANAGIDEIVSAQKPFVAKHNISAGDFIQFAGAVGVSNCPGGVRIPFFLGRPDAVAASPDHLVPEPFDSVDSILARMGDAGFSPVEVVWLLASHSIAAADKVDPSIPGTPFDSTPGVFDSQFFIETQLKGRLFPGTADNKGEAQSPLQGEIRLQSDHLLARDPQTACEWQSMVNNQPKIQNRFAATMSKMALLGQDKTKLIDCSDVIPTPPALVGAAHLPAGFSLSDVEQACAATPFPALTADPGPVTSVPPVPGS

With `Nc1c(S(=O)(=O)O)cc(Nc2cccc(S(=O)(=O)CCOS(=O)(=O)O)c2)c2c1C(=O)c1ccccc1C2=O` [RB19], the Km at PchLiPA is 34 ± 13 µM; on PerVPL, 33 ± 8 µM.
